Data from patent US20150258059A1, “ANTIMICROBIAL AND RADIOPROTECTIVE COMPOUNDS” (BioDiem, Ltd, priority 2001, published 2015).
Read-outs that look alike come from different tables or passages of the source.

Tests used:
Alkaligenes sp. B-689 = assay: Sensitivity of strains: suppression of growth; type: cell-based; conditions: Compound (1) 1.0%; antibiotics disc method
[1] = test system: Staphylococcus aureus M-12159; assay: Sensitivity of strains: suppression of growth; type: cell-based; conditions: Compound (1) 1.0%; antibiotics disc method
[2] = test system: Staphylococci epidermidis D-513; assay: Sensitivity of strains: suppression of growth; type: cell-based; conditions: Compound (1) 1.0%; antibiotics disc method
[3] = test system: β-hemolytic streptococcus B-624; assay: Sensitivity of strains: suppression of growth; type: cell-based; conditions: Compound (1) 1.0%; antibiotics disc method
Acinetobacter B-681 = assay: Sensitivity of strains: suppression of growth; type: cell-based; conditions: Compound (1) 1.0%; antibiotics disc method
[4] = test system: Staphylococcus aureus B-674; assay: Sensitivity of strains: suppression of growth; type: cell-based; conditions: Compound (1) 1.0%; antibiotics disc method
Mycobact tub. H.37RV = assay: Anti-TB effect, serial double dilution in liquid medium; type: cell-based, M tuberculosis; conditions: 10-14 days incubation at 37° C.; read-out: Minimal Inhibitory Concentration
[5] = test system: Enterobacter aerogenes B-687; assay: Sensitivity of strains: suppression of growth; type: cell-based; conditions: Compound (1) 1.0%; antibiotics disc method
[6] = test system: Neisseria meningitidis M-6231; assay: Sensitivity of strains: suppression of growth; type: cell-based; conditions: Compound (1) 1.0%; antibiotics disc method
[7] = test system: Klebsiella pneumoniae M-A21; assay: Sensitivity of strains: suppression of growth; type: cell-based; conditions: Compound (1) 1.0%; antibiotics disc method
[8] = test system: Neisseria meningitidis M-A72; assay: Sensitivity of strains: suppression of growth; type: cell-based; conditions: Compound (1) 1.0%; antibiotics disc method
[9] = test system: Yersinia pseudotuberculosis; type: cell-based; conditions: Compound (1) 1.0%; antibiotics disc method
Escherichia coli M-17 = assay: Sensitivity of strains: suppression of growth; type: cell-based; conditions: Compound (1) 1.0%; antibiotics disc method
[10] = test system: Klebsiella pneumoniae M-248; assay: Sensitivity of strains: suppression of growth; type: cell-based; conditions: Compound (1) 1.0%; antibiotics disc method
[11] = test system: Conditional pathogenic enterobacteria gram-negative aerobic bacilli; type: cell-based; also: key: + sensitive strains; + moderately sensitive strains; − stable strains
[12] = test system: Pseudomonas aeruginosa B-601; assay: Sensitivity of strains: suppression of growth; type: cell-based; conditions: Compound (1) 1.0%; antibiotics disc method
[13] = test system: Staphylococcus epidermidis BK-30; assay: Sensitivity of strains: suppression of growth; type: cell-based; conditions: Compound (1) 1.0%; antibiotics disc method
Acinetobacter B-677 = assay: Sensitivity of strains: suppression of growth; type: cell-based; conditions: Compound (1) 1.0%; antibiotics disc method
[14] = test system: Enterobacter aerogenes B-679; assay: Sensitivity of strains: suppression of growth; type: cell-based; conditions: Compound (1) 1.0%; antibiotics disc method
Alkaligenes sp. B-667 = assay: Sensitivity of strains: suppression of growth; type: cell-based; conditions: Compound (1) 1.0%; antibiotics disc method
[15] = test system: Corynebacterium diphtheriae B-670; assay: Sensitivity of strains: suppression of growth; type: cell-based; conditions: Compound (1) 1.0%; antibiotics disc method
[16] = test system: γ-hemolytic streptococcus B-672; assay: Sensitivity of strains: suppression of growth; type: cell-based; conditions: Compound (1) 1.0%; antibiotics disc method
Escherichia coli B-65 = assay: Sensitivity of strains: suppression of growth; type: cell-based; conditions: Compound (1) 1.0%; antibiotics disc method
[17] = test system: Citrobacter diversus B-678; assay: Sensitivity of strains: suppression of growth; type: cell-based; conditions: Compound (1) 1.0%; antibiotics disc method
Escherichia coli B-683 = assay: Sensitivity of strains: suppression of growth; type: cell-based; conditions: Compound (1) 1.0%; antibiotics disc method
Acinetobacter B-676 = assay: Sensitivity of strains: suppression of growth; type: cell-based; conditions: Compound (1) 1.0%; antibiotics disc method
[18] = test system: Staphylococcus aureus B-685; assay: Sensitivity of strains: suppression of growth; type: cell-based; conditions: Compound (1) 1.0%; antibiotics disc method
[19] = test system: Staphylococcus aureus M-209; assay: Sensitivity of strains: suppression of growth; type: cell-based; conditions: Compound (1) 1.0%; antibiotics disc method
[20] = test system: Salmonella paratyphi M-16469; assay: Sensitivity of strains: suppression of growth; type: cell-based; conditions: Compound (1) 1.0%; antibiotics disc method
[21] = test system: Pseudomonas aeruginosa ATCC 27853; assay: NCCLS broth microdilution MIC/MBC; type: cell-based; conditions: for MIC: Pseudomonas aeruginosa, ATCC27853, read-out: MIC
[22] = test system: Escherichia coli ATCC 25922; assay: NCCLS broth microdilution MIC/MBC; type: cell-based; conditions: for MIC: Escherichia coli, ATCC25922, read-out: MIC
[23] = test system: Enterococcus faecalis ATCC 29212; assay: NCCLS broth microdilution MIC/MBC; type: cell-based; conditions: for MIC: Enterococcus faecalis, ATCC29212
Haemophilus influenzae = assay: NCCLS broth microdilution MIC/MBC; type: cell-based; conditions: Table 9, 35° C., 24 hours
S. aureus = assay: Antibacterial activity in the presence of blood, macrodilution; type: cell-based
[24] = test system: Staphylococcus aureus ATCC 29213; assay: NCCLS broth microdilution MIC/MBC; type: cell-based; conditions: for MIC: Staphylococcus aureus, ATCC29213, read-out: MIC
Fusarium graminearum = assay: microbe, parasite or virus in culture; type: cell-based
C. glabrate RMIT 157 = assay: M38-P microdilution MIC/MFC; type: cell-based; conditions: Table 16, 24 h, 35° C.
C. krusei RMIT 177 = assay: M38-P microdilution MIC/MFC; type: cell-based; conditions: 35° C.
Epidermophyton floccosum = assay: NCCLS broth macro-dilution MIC/MFC (RPMI); type: cell-based; conditions: Table 10, 7 day, 30° C.
Microsporum gypseum = assay: NCCLS broth macro-dilution MIC/MFC (RPMI); type: cell-based; conditions: Table 10, 7 day, 30° C.
[25] = test system: C. guillermondii RMIT 176; assay: M38-P microdilution MIC/MFC; type: cell-based; conditions: Table 16, 24 h, 35° C.
Candida albicans = assay: NCCLS broth macro-dilution MIC/MFC (RPMI); type: cell-based; conditions: Table 10, 4 day, 30° C.
C. tropicalis RMIT 181 = assay: M38-P microdilution MIC/MFC; type: cell-based; conditions: 35° C.
Rhodotorula rubra = assay: NCCLS broth macro-dilution MIC/MFC (RPMI); type: cell-based; conditions: Table 10, 4 day, 30° C.
Trichophyton rubrum = assay: NCCLS broth macro-dilution MIC/MFC (RPMI); type: cell-based; conditions: Table 10, 7 day, 30° C.
Cryptococcus neoformans = assay: M38-P microdilution MIC/MFC; type: cell-based; conditions: Cryptococcus neoformans, Table 16, 24 h, 35° C., read-out: MIC
C. parapsilosis RMIT 178 = assay: M38-P microdilution MIC/MFC; type: cell-based; conditions: 35° C.
[26] = in vivo; cited from earlier work

CO[C@H]1/C=C/O[C@@]2(C)Oc3c(C)c(O)c4c(O)c(c(/C=N/N5CCN(C)CC5)c(O)c4c3C2=O)NC(=O)/C(C)=C\C=C\[C@H](C)[C@H](O)[C@@H](C)[C@@H](O)[C@@H](C)[C@H](OC(C)=O)[C@@H]1C [Antibiotic 10, rifampicin]
+: Suppression of Growth (+/−) [1] | Suppression of Growth (+/−) [2] | Suppression of Growth (+/−) [3] | Suppression of Growth (+/−) (Acinetobacter B-681) | Suppression of Growth (+/−) [13] | Suppression of Growth (+/−) (Acinetobacter B-677) | Suppression of Growth (+/−) (Alkaligenes sp. B-667) | Suppression of Growth (+/−) [15] | Suppression of Growth (+/−) (Acinetobacter B-676) | Suppression of Growth (+/−) [18] | Suppression of Growth (+/−) [19]
−: Suppression of Growth (+/−) (Alkaligenes sp. B-689) | Suppression of Growth (+/−) [4] | Suppression of Growth (+/−) [5] | Suppression of Growth (+/−) [6] | Suppression of Growth (+/−) [7] | Suppression of Growth (+/−) [8] | Suppression of Growth (+/−) [9] | Suppression of Growth (+/−) (Escherichia coli M-17) | Suppression of Growth (+/−) [10] | Suppression of Growth (+/−) [11] | Suppression of Growth (+/−) [12] | Suppression of Growth (+/−) [14] | Suppression of Growth (+/−) [16] | Suppression of Growth (+/−) (Escherichia coli B-65) | Suppression of Growth (+/−) [17] | Suppression of Growth (+/−) (Escherichia coli B-683) | Suppression of Growth (+/−) [20]
0.01 to 0.02 µg/mL: MIC (Mycobact tub. H.37RV)

O=C(O)c1cn(C2CC2)c2cc(N3CCNCC3)c(F)cc2c1=O [Ciprofloxacin]
2 fold: decrease in activity (S. aureus; in the presence of whole blood)
0.02 µg/mL: MIC ([22]; Table 9, 35° C., 24 hours) | MIC ([22]; Table 17, 2 or 3 replicates) | MMC ([22]; Table 9, 35° C., 24 hours) | MMC ([22]; Table 17, 2 or 3 replicates)
4 fold: decrease in activity (S. aureus; in the presence of 10% plasma)
0.25 µg/mL: MIC ([21]; Table 9, 35° C., 24 hours) | MIC ([21]; Table 17, 2 or 3 replicates) | MMC ([21]; Table 9, 35° C., 24 hours) | MMC ([21]; Table 17, 2 or 3 replicates) | MIC ([24]; Table 9, 35° C., 24 hours) | MIC ([24]; Table 17, 2 or 3 replicates) | MMC ([24]; Table 9, 35° C., 24 hours) | MMC ([24]; Table 17, 2 or 3 replicates)
0.5 µg/mL: MIC ([23]; Table 9, 35° C., 24 hours) | MIC ([23]; Table 17, 2 or 3 replicates) | MMC ([23]; Table 9, 35° C., 24 hours) | MMC ([23]; Table 17, 2 or 3 replicates)
0.006 µg/mL: MIC (Haemophilus influenzae; Haemophilus influenzae, read-out: MIC) | MMC (Haemophilus influenzae)

Clc1ccc(COC(Cn2ccnc2)c2ccc(Cl)cc2Cl)c(Cl)c1 (stereo not shown) [Miconazole]
2 µg/mL: MIC (C. krusei RMIT 177; Pichia kudriavzevii, RMIT177, Table 16, 24 h, read-out: MIC) | MMC (C. krusei RMIT 177; Table 16, 24 h) | MMC (C. tropicalis RMIT 181; Table 16, 24 h)
1 µg/mL: MMC [25] | MIC ([25]; read-out: MIC) | MIC (C. tropicalis RMIT 181; Candida tropicalis, RMIT181, Table 16, 24 h, read-out: MIC) | MIC (Trichophyton rubrum; Trichophyton rubrum, 168 h)
0.5 µg/mL: MMC (C. glabrate RMIT 157) | MIC (C. parapsilosis RMIT 178; Lodderomyces parapsilosis, RMIT178, Table 16, 24 h, read-out: MIC) | MMC (C. parapsilosis RMIT 178; Table 16, 24 h)
64 µg/mL: MMC (Microsporum gypseum) | MMC (Trichophyton rubrum)
4 µg/mL: MIC (Microsporum gypseum; Nannizzia gypsea, 168 h) | MIC (Candida albicans; Candida albicans, 96 h) | MIC (Cryptococcus neoformans)
0.25 µg/mL: MIC (C. glabrate RMIT 157; read-out: MIC) | MIC (Epidermophyton floccosum; Epidermophyton floccosum, 168 h) | MMC (Epidermophyton floccosum)
32 µg/mL: MIC (Fusarium graminearum; Fusarium graminearum, 168 h) | MMC (Fusarium graminearum; Table 10, 7 day, 30° C.) | MMC (Rhodotorula rubra)
8 µg/mL: MMC (Candida albicans) | MIC (Rhodotorula rubra; Rhodotorula, 96 h)

NCCSSCCN [cystamine]
causes diarrhea: side effect [26]
≤ 1.45: index of protection [26]

NCCS [mercamine, β-mercaptoethylamine]
0.5 to 1 h: period of action [26]
15 to 30 min: duration of radiation protecting activity [26]
